In brackets after ≈: the same amount, converted by molar mass. Entries after “also recorded” stand apart in the source; their conditions may differ.
What was measured:
[1] = Stability assay at a high temperature of 60° C. (water content, related substances, content); format: physicochemical; conditions: for Content %: HPLC; for Water content %: Karl Fischer method
Protocol: The crystalline form I: prepared by referring to the method of example 1 in CN201010178970.2. The batch number is 20100315-4;
The crystalline form II: prepared by example 2 of the Description. The batch number is 040805.
Test condition: sampled after being placed for 5 and 10 days at a high temperature of 60° C., and the results thus obtained were compared with those obtained at day 0 by measuring water content, related substances and contents thereof. The samples were sealed with plastic bags coated with aluminium foils during the assay.
Water content determination is performed according to the first method (the Karl Fischer method) in Chinese Pharmacopoeia, 2010 edition, Appendix VIII M.
Assay is performed by using the control as the external standard according to the high performance liquid chromatography in Chinese Pharmacopoeia, 2010 edition, Appendix VD.
Apparatus: high performance liquid chromatograph (Agilent 1200 series)
Chromatographic column: Agilent C18; filler: 5 μm octadecyl silane boned silica gel; inner diameter: 4.6 mm; length of the column: 150 mm.
Column temperature: 30° C.
Mobile phase: 0.02 M diammonium phosphate (pH=5.2 adjusted by phosphoric acid): acetonitrile=100:7
Determination of related substances is performed by area normalization method according to the high performance liquid chromatography in Chinese Pharmacopoeia, 2010 edition, Appendix VD.
Chromatographic column: Agilent C18; filler: 5 μm octadecyl silane boned silica gel; inner diameter: 4.6 mm; length of column: 150 mm.
Mobile phase: A: 0.02 M diammonium phosphate (pH=5.2 adjusted by phosphoric acid): acetonitrile=95:5.
B: 0.02 M diammonium phosphate (pH=5.2 adjusted by phosphoric acid): acetonitrile=30:70.
Gradient condition: see Table 1 below.

[2] = system: methicillin sensitive Staphylococcus aureus (MSSA); test: Antibacterial activity assay, standard agar double dilution method, clinically isolated strains; format: cell-based; conditions: MSSA clinical isolates
From the text: (§1) Test strains: the following clinically isolated strains were provided by public organizations.
(§2) Gram-positive bacteria: methicillin sensitive Staphylococcus aureus (MSSA), and penicillin sensitive Streptococcus pneumoniae;
(§3) Gram-negative bacteria: ESBLs negative Escherichia coli, ESBLs positive Escherichia coli, Haemophilus influenzae, and Moraxelle catarrhalis.
(§4) Test compound: the crystalline form II of compound A
(§5) Experimental method: standard agar double dilution method was adopted.

Haemophilus influenzae = test: as above; format: cell-based; conditions: Haemophilus influenzae clinical isolates
From the text: as §1, §2, §3, §4, §5

[3] = system: ESBLs negative Escherichia coli; test: as above; format: cell-based; conditions: ESBLs negative Escherichia coli clinical isolates
From the text: as §1, §2, §3, §4, §5

[4] = system: penicillin sensitive Streptococcus pneumoniae; test: as above; format: cell-based; conditions: Penicillin sensitive Streptococcus pneumoniae clinical isolates
From the text: as §1, §2, §3, §4, §5

Moraxelle catarrhalis = test: as above; format: cell-based; conditions: Moraxelle catarrhalis clinical isolates
From the text: as §1, §2, §3, §4, §5

[5] = system: ESBLs positive Escherichia coli; test: as above; format: cell-based; conditions: ESBLs positive Escherichia coli clinical isolates
From the text: as §1, §2, §3, §4, §5

[6] = system: Gram-positive and Gram-negative bacteria; test: Antibacterial activity assay, overall conclusion; format: cell-based; conditions: clinically isolated strains
From the text: as §1, §2, §3, §4, §5

[7] = 5 days at 60° C. as compared with day 0
[8] = 10 days at 60° C. as compared with day 0

Row | Compound | Decrease in content % [1, 7] [%] | Decrease in water content % [1, 7] [%] | Increase open ring % [1, 7] [%] | Increase total % [1, 7] [%] | Related substance % Total % ([1]; 5 days at 60° C., sealed) [%] | Related substance % open ring % ([1]; 5 days at 60° C., sealed) [%] | Content % ([1]; 5 days at 60° C.) [%] | Water content % ([1]; 5 days at 60° C.) [%] | Decrease in content % [1, 8] [%] | Decrease in water content % [1, 8] [%] | Increase open ring % [1, 8] [%] | Increase total % [1, 8] [%] | Related substance % Total % ([1]; 10 days at 60° C., sealed) [%] | Related substance % open ring % ([1]; 10 days at 60° C., sealed) [%] | Content % ([1]; 10 days at 60° C.) [%] | Water content % ([1]; 10 days at 60° C.) [%] | Related substance % Total % ([1]; day 0) [%] | Related substance % open ring % ([1]; day 0) [%] | Content % ([1]; day 0) [%] | Water content % ([1]; day 0) [%] | also measured
1 | C[C@@H](O)[C@H]1C(=O)N2C(C(=O)O)=C(S[C@@H]3CN[C@H](C(=O)NCc4ccc(S(N)(=O)=O)cc4)C3)[C@H](C)[C@H]12 [crystalline form I, (4R,5S,6S)-6-((R)-1-hydroxyethyl)-4-methyl-7-oxo-3-(((3S,5S)-5-((4-sulfamoylbenzyl)carbamoyl)pyrrolidin-3-yl)thio)-1-azabicyclo[3.2.0]hept-2-ene-2-carboxylic acid] | 3.73 | 0.183 | 0.646 | 0.841 | 2.550 | 0.782 | 96.27 | 7.701 | 3.95 | 0.665 | 0.984 | 1.167 | 2.876 | 1.120 | 96.05 | 7.219 | 1.709 | 0.136 | 100 | 7.884 | 
2 | C[C@@H](O)[C@H]1C(=O)N2C(C(=O)O)=C(S[C@@H]3CN[C@H](C(=O)NCc4ccc(S(N)(=O)=O)cc4)C3)[C@H](C)[C@H]12 [crystalline form II, (4R,5S,6S)-6-((R)-1-hydroxyethyl)-4-methyl-7-oxo-3-(((3S,5S)-5-((4-sulfamoylbenzyl)carbamoyl)pyrrolidin-3-yl)thio)-1-azabicyclo[3.2.0]hept-2-ene-2-carboxylic acid] | 1.57 | 0.026 | 0.632 | 0.527 | 1.573 | 0.789 | 98.43 | 8.290 | 2.24 | 0.402 | 0.944 | 0.853 | 1.899 | 1.101 | 97.76 | 7.914 | 1.046 | 0.157 | 100 | 8.316 | MICmode [2]: 0.062 mg/L; MIC90 ([2]; Staphylococcus aureus): 0.062 µg/mL (≈ 0.118 µM); MIC90 (Haemophilus influenzae): 0.125 µg/mL (≈ 0.238 µM); MICmode (Haemophilus influenzae): 0.062 mg/L; MIC90 [3]: 0.016 µg/mL (≈ 0.0305 µM); MICmode [3]: 0.016 mg/L; MIC90 [4]: 0.031 µg/mL (≈ 0.0591 µM); MICmode [4]: 0.008 mg/L; MIC90 (Moraxelle catarrhalis): 0.008 µg/mL (≈ 0.0152 µM); MICmode (Moraxelle catarrhalis): 0.004 mg/L; MIC90 [5]: 0.25 µg/mL (≈ 0.477 µM); MICmode [5]: 0.016 mg/L; stability as compared with the crystalline form I ([1]; 5 and 10 days at 60° C.): superior stability; also recorded: better than that of the crystalline form I; antibacterial activity [6]: excellent antibacterial activity against both Gram-positive and Gram-negative bacteria

Source: US8822445B2, “Crystalline form of carbapenem derivative or its hydrates and preparation methods and uses thereof” (priority 2010, dated 2014)
